Results from patent publication US6407129B1, “Azole compounds, their production and their use” (Takeda Chemical Industries, Ltd., priority 1997, dated 2002).

Assays:
Type in all cases: in vivo
Candida albicans TA [1] = assay: Protective effect against experimental Candida albicans TA infection in mice, oral administration (Experiment 2); conditions: Crj:CDF1 female mice, i.v. infection, compound in 5% glucose given orally immediately after infection; Reed and Muench from survival rates on day 7
Procedure: (§1) Method: Five-week-old Crj:CDF1 female mice were infected intravenously with minimum lethal dose of Candida albicans TA. The test compounds were dissolved in 5% glucose solution and were administered orally to the mice immediately after infection. Protective effects of the compounds were expressed as 50% effective dose (ED50) calculated using the method of Reed and Muench from survival rates on day 7 after infection.

Candida albicans TA [2] = assay: Protective effect against experimental Candida albicans TA infection in mice, intravenous administration (Experiment 1); conditions: Crj:CDF1 female mice, compound in 5% glucose given intravenously immediately after infection, Reed and Muench from survival rates on day 7
Procedure: as §1, with “intravenously” for “orally”

Candida albicans T.A. = assay: Protective effect at a single dose of 1.04 μmol/kg against experimental Candida albicans TA infection in mice (Experiment 3); conditions: n = 5 mice; for Mean survival day of the mice which died, i.v. / No. of survivors, i.v.: 1.04 μmol/kg i.v.; for Mean survival day of the mice which died, i.v. / Mean survival day of the mice which died, p.o.: mice which had died up to 7 days after infection; for No. of survivors, i.v. / No. of survivors, p.o.: survivors on day 7 after infection; for Mean survival day of the mice which died, p.o. / No. of survivors, p.o.: 1.04 μmol/kg p.o.
Procedure: Method: Five-week-old Crj:CDF1 female mice were infected intravenously with minimum lethal dose of Candida albicans T.A. The test compounds were dissolved in 5% glucose solution and were administered intravenously (i.v.) or orally (p.o.) to the mice at a dose of 1.04 μmol/kg immediately after infection. Protective effect of each compound were expressed as the number of survivors on day 7 after infection and the mean survival days of the mice which had died up to 7 days after infection.
The protective effect of the reference compound shown in figure (V) is included in Table 7. The reference compound was suspended in 0.5% sodium carboxymethyl cellulose and was administered orally to the mice at a dose of 1.04 μmol/kg immediately after infection.

1-[(2R,3R)-2-(2,4-difluorophenyl)-2-hydroxy-3-[2-oxo-3-[4-(1H-1,2,3-triazol-1-yl)phenyl]-1-imidazolidinyl]butyl]-4-[(2,2-dimethylpropanoyloxy)methyl]-1H-1,2,4-triazolium chloride [Compound 1]
ED50 p.o. (Candida albicans TA [1]): 2.9 µmol/kg
ED50 i.v. (Candida albicans TA [2]): 2.3 µmol/kg

1-[(2R,3R)-2-(2,4-difluorophenyl)-2-hydroxy-3-[2-oxo-3-[4-(1H-tetrazol-1-yl)phenyl]-1-imidazolidinyl]butyl]-4-(isopropoxycarbonyloxy)methyl-1H-1,2,4-triazolium chloride [Compound 18]
Mean survival day of the mice which died, i.v. (Candida albicans T.A.): 5.5 days
No. of survivors, i.v. (Candida albicans T.A.): 3
Mean survival day of the mice which died, p.o. (Candida albicans T.A.): 4.5 days
No. of survivors, p.o. (Candida albicans T.A.): 3

C[C@@H](N1CCN(c2ccc(-n3cnnn3)cc2)C1=O)[C@](O)(C[n+]1cn(COC(=O)C(C)(C)C)cn1)c1ccc(F)cc1F.[Cl-] [Compound 2, 1-[(2R,3R)-2-(2,4-difluorophenyl)-2-hydroxy-3-[2-oxo-3-[4-(1H-tetrazol-1-yl)phenyl]-1-imidazolidinyl]butyl]-4-[(2,2-dimethylpropanoyloxy)methyl]-1,2,4-triazolium chloride]
ED50 p.o. (Candida albicans TA [1]): 1.8 µmol/kg
ED50 i.v. (Candida albicans TA [2]): 1.5 µmol/kg

CC(=O)OC[n+]1cnn(C[C@](O)(c2ccc(F)cc2F)[C@@H](C)N2CCN(c3ccc(-n4cnnn4)cc3)C2=O)c1.[Br-] [Compound 11, 4-acetoxymethyl-1-[(2R,3R)-2-(2,4-difluorophenyl)-2-hydroxy-3-[2-oxo-3-[4-(1H-tetrazol-1-yl)phenyl]-1-imidazolidinyl]butyl]-1H-1,2,4-triazolium bromide]
Mean survival day of the mice which died, i.v. (Candida albicans T.A.): 4.0 days
No. of survivors, i.v. (Candida albicans T.A.): 2
Mean survival day of the mice which died, p.o. (Candida albicans T.A.): 6.0 days
No. of survivors, p.o. (Candida albicans T.A.): 3

CC(=O)OC[n+]1cnn(C[C@](O)(c2ccc(F)cc2F)[C@@H](C)N2CCN(c3ccc(-n4cnnn4)cc3)C2=O)c1.[Cl-] [Compound 12, 4-acetoxymethyl-1-[(2R,3R)-2-(2,4-difluorophenyl)-2-hydroxy-3-[2-oxo-3-[4-(1H-tetrazol-1-yl)phenyl]-1-imidazolidinyl]butyl]-1H-1,2,4-triazolium chloride]
Mean survival day of the mice which died, i.v. (Candida albicans T.A.): 4.5 days
No. of survivors, i.v. (Candida albicans T.A.): 3
Mean survival day of the mice which died, p.o. (Candida albicans T.A.): 5.0 days
No. of survivors, p.o. (Candida albicans T.A.): 4

CCC(=O)OC[n+]1cnn(C[C@](O)(c2ccc(F)cc2F)[C@@H](C)N2CCN(c3ccc(-n4cnnn4)cc3)C2=O)c1.[Cl-] [Compound 14, 1-[(2R,3R)-2-(2,4-difluorophenyl)-2-hydroxy-3-[2-oxo-3-[4-(1H-tetrazol-1-yl)phenyl]-1-imidazolidinyl]butyl]-4-propanoyloxymethyl-1H-1,2,4-triazolium chloride]
Mean survival day of the mice which died, i.v. (Candida albicans T.A.): 4.5 days
No. of survivors, i.v. (Candida albicans T.A.): 1
Mean survival day of the mice which died, p.o. (Candida albicans T.A.): 6.0 days
No. of survivors, p.o. (Candida albicans T.A.): 3

CCOC(=O)OC[n+]1cnn(C[C@](O)(c2ccc(F)cc2F)[C@@H](C)N2CCN(c3ccc(-n4cnnn4)cc3)C2=O)c1.[Cl-] [Compound 16, 1-[(2R,3R)-2-(2,4-difluorophenyl)-2-hydroxy-3-[2-oxo-3-[4-(1H-tetrazol-1-yl)phenyl]-1-imidazolidinyl]butyl]-4-ethoxycarbonyloxymethyl-1H-1,2,4-triazolium chloride]
Mean survival day of the mice which died, i.v. (Candida albicans T.A.): 6.0 days
No. of survivors, i.v. (Candida albicans T.A.): 4
No. of survivors, p.o. (Candida albicans T.A.): 5

CC(N1CCN(c2ccc(-n3cnnn3)cc2)C1=O)C(O)(Cn1cncn1)c1ccc(F)cc1F (stereo not shown) [Reference compound (V), reference compound]
Mean survival day of the mice which died, p.o. (Candida albicans T.A.): 4.3 days
No. of survivors, p.o. (Candida albicans T.A.): 2
